# Literature values in patent publication US20150080252A1 (Fox Chase Cancer Center, priority 2009, published 2015).
# Structures can show the parent of a compound that is named as a salt.
# Test system: metastatic and/or unresectable GIST
smiles,measurement,setting,value
"Cc1ccc(NC(=O)c2ccc(CN3CCN(C)CC3)cc2)cc1Nc1nccc(-c2cccnc2)n1 [IM, imatinib mesylate]",patients with objective responses or stable disease,metastatic and/or unresectable GIST,> 80%
same,median time to partial response (PR) (≧30% reduction),seminal phase II metastatic GIST study,16 weeks
